One test has as its system saline-drinking SHRSP. The test is described as follows: Protocol 1: renal pathologic changes in saline-drinking SHRSP. It is filed as in vivo, male SHRSP/A3N. The procedure:
(§1) Animals. Studies were conducted in accordance with institutional guidelines using male SHRSP/A3N (generations F-75 to F-78), n = 37, from our local colony. These animals were bred from NIH stock, derived from the SHRSP/A3N substrain described originally by Okamoto and coworkers (Okamoto K et al. Circ. Res. 34 and 35 (suppl I):I-143-I-153.). All animals were housed in a room maintained on a 12:12-h light:dark-cycle and an ambient temperature of 22 ± 1°C in the Animal Care Facility at New York Medical College. Rats were weaned at 4 weeks of age and allowed free access to Purina Lab Chow 5001 (Ralston Purina, St. Louis, MO) and tap water until the initiation of experimental protocols.
Eighteen SHRSP were given 1% NaCl to drink and were fed Stroke-Prone Rodent Diet (#39-288, Zeigler Brothers, Inc., Gardners, PA) starting at 8.1 weeks of age. […] Vehicle-control littermates received 2 ml/kg/d of the 0.5% methylcellulose solution. Animals were housed individually in metabolic cages so that measurements of 24-h urine output and protein excretion could be made. Animals were examined each day for neurologic signs of stroke. Systolic arterial pressure and heart rate were measured each week in awake rats. The experiment was terminated after 5 weeks of treatment when the animals were 13.1 weeks of age. Trunk blood was collected into chilled EDTA tubes following rapid decapitation of the animals between 10:00 am and 12:00 pm. Blood was stored at - 20°C for later measurement of plasma aldosterone levels. The kidneys were rapidly removed, weighed, and then preserved in fixative for later histologic examination.
(§2) Assays and Analyses. Systolic blood pressure and heart rate of awake animals were measured by tail-cuff plethysmography using a Natsume KN-210 manometer and tachometer (Peninsula Laboratories Inc., Belmont, CA). Rats were warmed at 37°C for 10 min and allowed to rest quietly in a Lucite chamber before measurement of blood pressure. Measurements of urine volume were made gravimetrically. Urinary protein concentration was determined by the sulfosalicylic acid turbidity method. Plasma aldosterone was measured by radioimmunoassay using ^125I-aldosterone as a tracer (Coat-a Count Aldosterone, Diagnostic Products Co., Los Angeles, CA).
(§3) Histology. Kidneys were preserved in 10% phosphate-buffered formalin. Coronal sections (2-3 µm) were stained with hematoxylin and eosin and examined by light microscopy in a blinded fashion as previously described (Stier CT et al. J Pharmacol Exp Ther (1992) 260:1410-1415). Glomerular damage was categorized as ischemic or thrombotic. Ischemic lesions were defined as retraction of glomerular capillary tufts with or without appreciable mesangiolysis. Glomerular thrombotic lesions were defined as any one of a combination of the following: segmental to global fibrinoid necrosis, focal thrombosis of glomerular capillaries, swelling and proliferation of intracapillary (endothelial and mesangial) and/or extracapillary cells (crescents), and expansion of reticulated mesangial matrix with or without significant hypercellularity. […] Vascular thrombotic lesions were defined as any one or a combination of the following: mural fibrinoid necrosis, extravasation and fragmentation of red blood cells, and luminal and/or mural thrombosis. Proliferative arteriopathy was characterized by proliferation of markedly swollen myointimal cells with swollen round to ovoid vesicular nuclei surrounded by mucinous extracellular matrix ("onion skinning") often resulting in nodular thickening. Vascular damage was expressed as the number of arteries and arterioles with lesions per 100 glomeruli. The presence of casts and tubular (ischemic) retraction and simplification was assessed semiquantitatively.
Statistical Analysis. Significant effects with respect to treatment and time were determined by two-way analysis of variance. Data with only one grouping variable were analyzed statistically by Student's unpaired t tests. […]

Test [1] deals with captopril-treated, saline-drinking SHRSP. Nature of the test: Protocol 2: Angiotensin II-induced renal damage in captopril-treated saline-drinking SHRSP. The test is classed as in vivo, male SHRSP/A3N. The procedure: as §1
SHRSP were placed on Stroke-Prone Rodent Diet (#39-288, Zeigler Bros Inc., Gardners, PA) and 1% NaCl drinking solution ad libitum starting at 8.3 weeks of age. […] Animals were handled and weighed daily. Urine samples were collected for the assessment of proteinuria. Systolic blood pressure and heart rate were measured each week. After 2 weeks of treatment, animals were decapitated, trunk blood was collected into chilled EDTA tubes, and the kidneys were removed, blotted dry, and immediately weighed. Coronal sections of kidney were fixed and later processed for light microscopic evaluation.
as §2, §3
Statistical Analysis. Significant effects with respect to treatment and time were determined by two-way analysis of variance. Data with only one grouping variable were analyzed statistically by Student's unpaired t tests. When more than two groups were compared, one-way analysis of variance was performed followed by the post-hoc Newman-Keul's multiple comparison test. Data were analyzed using version 2.01 of the GraphPad Prism statistical software package (GraphPad Software Inc., San Diego, CA). P < .05 was considered statistically significant. Data are reported as mean ± SEM.

[2] abbreviates: oral eplerenone 100 mg/kg/d, preterminal.
Where [3] appears, read: captopril plus vehicle, or captopril plus angiotensin II plus eplerenone.

Turning to `COC(=O)[C@@H]1CC2=CC(=O)CC[C@]2(C)[C@@]23O[C@@H]2C[C@@]2(C)[C@@H](CC[C@@]24CCC(=O)O4)[C@H]13` [Eplerenone, Pregn-4-ene-7,21-dicarboxylic acid, 9,11-epoxy-17-hydroxy-3-oxo-, γ-lactone, methyl ester, (7α, 11α, 17β)-], in the test with saline-drinking SHRSP (100 mg/kg/d by gavage, 5 weeks), the “Glomerular damage, Ischemic” value came out at 1.0 ± 1.0 lesions/100 glomeruli; the “Glomerular damage, Thrombotic” value is 0.1 ± 0.1 lesions/100 glomeruli; the “Glomerular damage, Total” value worked out at 1.0 ± 1.0 lesions/100 glomeruli; the “Renal angiopathy, Proliferative” value stood at 0.1 ± 0.1 lesions/100 glomeruli. Further, in the test with saline-drinking SHRSP (100 mg/kg/d by gavage, 5 weeks), the “Renal angiopathy, Thrombotic” value was determined as 1.0 ± 1.0 lesions/100 glomeruli and the “Renal angiopathy, Total” value worked out at 1.0 ± 1.0 lesions/100 glomeruli. Besides, in the test with saline-drinking SHRSP (100 mg/kg/d, 5 weeks), the “Protein casts, % of tubules” value came out at 0.11 ± 0.04%; the “tubules displaying ischemic retraction and simplification” value was found to be 0.5 ± 0.2%. Also, the evidence of stroke result with saline-drinking SHRSP (n = 9, P < .01 vs vehicle) is given as “none”. In addition, the renal lesions in the test on saline-drinking SHRSP (oral eplerenone 100 mg/kg/d for 5 to 6 weeks) was found to be 1 ± 1%. In addition, in the test with saline-drinking SHRSP (setting [2]), the “proteinuria (urinary protein excretion)” value is 16 ± 2 mg/day and the “severe hypertension (systolic blood pressure)” value amounted to 219 ± 6 mm Hg. For the same compound, in test [1] (Captopril 50 mg/kg/d + vehicle, or CAP, Angiotensin II 25 ng/min + Eplerenone 100 mg/kg/d, 2 weeks), the “Glomerular damage, Ischemic” value was 3.0 ± 1.0 lesions/100 glomeruli. In test [1] (as Table A-8B, 2 weeks), the “Glomerular damage, Thrombotic” value is listed as 1.0 ± 0.3 lesions/100 glomeruli; the “Glomerular damage, Total” value is recorded as 3.0 ± 1.0 lesions/100 glomeruli; the “Renal arteriopathy, Proliferative” value is given as 0.1 ± 0.1 lesions/100 glomeruli; the “Renal arteriopathy, Thrombotic” value is reported as 4.0 ± 1.0 lesions/100 glomeruli. In addition, in test [1] (as Table A-8B, 2 weeks), the “Renal arteriopathy, Total” value amounted to 4.0 ± 1.0 lesions/100 glomeruli. Further, the renal damage in test [1] (captopril plus angiotensin II plus eplerenone 100 mg/kg/d) was 3 ± 1%. Further, in test [1] (setting [3]), the “Preterminal systolic blood pressure” value is 231 ± 5 mm Hg; the “tubules with ischemic retraction and simplification” value was 2.5 ± 0.9%. The “proteinuria (urinary protein excretion)” value in test [1] (end of study (2 weeks), captopril 50 mg/kg/d plus vehicle, or captopril plus angiotensin II 25 ng/min plus eplerenone 100 mg/kg/d) is 28 ± 5 mg/day.

Source of the values: patent EP1289507B1, “USE OF AN ALDOSTERONE ANTAGONIST FOR THE TREATMENT OR PROPHYLAXIS OF ALDOSTERONE-MEDIATED PATHOGENIC EFFECTS” (priority 2000, dated 2001).
